This note sets out measurements from ChEMBL document CHEMBL1201862, “PubChem BioAssay data set” (2004).

The source made the active and inactive calls.

The target in one assay is Wee1-like protein kinase (Homo sapiens, UniProt P30291). The assay is described as follows: HeLa cell cycle G2/M accumulation – FACS, mechanism study for Wee1 degradation inhibitor project, late-stage follow-up, panel member Wee1 Degradation (AID 2088).
Assay [1] concerns the target G2/mitotic-specific cyclin-B1 (Homo sapiens, UniProt P14635). The assay is described as follows: HeLa cell cycle G2/M accumulation – FACS, mechanism study for Wee1 degradation inhibitor project, late-stage follow-up, panel member Cyclin B Degradation (AID 2088).
Assay [2] in a line: Luminescence Cell-Based Dose Response to Identify Activators of 5'UTR Stem-Loop Driven Prion Protein mRNA Translation in H4-C Neuroglioblastoma Cells. [Related pubchem assays: 1829 (Project Summary), 1814 (Primary HTS)]. In kind it is functional.
The nature of assay [3]: Luminescence Cell-Based Dose Response HTS to Identify Activators of Luciferase Translation or Activity in H4 […] Cells. [Related pubchem assays: 1829 (Project Summary), 1814 (Primary HTS)]. In kind it is functional.
A further assay has as its system H4. The assay can be described thus: Luminescence Cell-Based Dose Response HTS to Identify Activators of 5'UTR Stem-Loop Driven Prion Protein mRNA Translation in H4 Neuroglioblastoma Cells. [Related pubchem assays: 1829 (Project Summary), 1814 (Primary HTS)]. The settings on record: Homo sapiens. In kind it is functional.
Assay [4] can be described thus: Luminescence Cell-Based Dose Response to Identify Activators of Luciferase Translation or Activity in H4-C Neuroglioblastoma Cells. [Related pubchem assays: 1829 (Project Summary), 1814 (Primary HTS)]. In kind it is functional.
The nature of assay [5]: Luminescence Cell-Based Dose Confirmation to Identify Activators of 5'UTR Stem-Loop Driven Alpha-Synuclein mRNA Translation in H4 Neuroglioblastoma Cells. [Related pubchem assays: 1829 (Project Summary), 1814 (Primary HTS)]. In kind it is functional.
Assay [6] has as its target Cyclin-dependent kinase 5/CDK5 activator 1 (Homo sapiens, UniProt Q00535). The assay can be described thus: blockade of human CDK5 activity – biochemical, cherry-picked samples, set 2, dose response (AID 504545).
Assay [7] has as its target FAD-linked sulfhydryl oxidase ALR (Homo sapiens, UniProt P55789). The assay can be described thus: ALR-catalysed DTT oxidation blockers – biochemical, H2O2 detection, luminescence, cherry-pick, dose response (AID 493248).
For assay [8], the target named is T1, Rac GTPase-activating protein 1 (Homo sapiens, UniProt Q9H0H5).
T1 sequence (Q9H0H5 whole entry): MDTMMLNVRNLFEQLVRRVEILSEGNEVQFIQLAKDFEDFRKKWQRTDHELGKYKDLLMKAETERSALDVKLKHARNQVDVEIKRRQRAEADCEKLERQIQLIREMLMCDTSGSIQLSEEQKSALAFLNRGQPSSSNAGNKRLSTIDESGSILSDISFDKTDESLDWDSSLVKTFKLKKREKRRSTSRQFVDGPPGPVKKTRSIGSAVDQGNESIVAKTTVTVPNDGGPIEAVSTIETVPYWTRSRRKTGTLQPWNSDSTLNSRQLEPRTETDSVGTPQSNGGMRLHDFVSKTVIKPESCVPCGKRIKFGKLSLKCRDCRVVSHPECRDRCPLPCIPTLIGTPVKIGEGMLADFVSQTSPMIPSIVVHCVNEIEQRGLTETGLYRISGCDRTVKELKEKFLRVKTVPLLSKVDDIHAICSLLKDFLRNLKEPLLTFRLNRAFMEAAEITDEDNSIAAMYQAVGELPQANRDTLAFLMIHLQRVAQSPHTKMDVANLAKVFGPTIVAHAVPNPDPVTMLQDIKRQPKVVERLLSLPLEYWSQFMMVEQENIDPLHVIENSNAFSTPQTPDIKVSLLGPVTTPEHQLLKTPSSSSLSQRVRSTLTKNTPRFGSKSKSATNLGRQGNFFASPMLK
The assay is described as follows: blockers of MgcRacGAP-driven Rac1 GTP hydrolysis – biochemical, ADP Hunter fluorescence, primary and confirmatory, confirmation (AID 624330). The format is functional.

Assay [9] concerns Vero. The assay is described as follows: mammalian cell viability reduction – secondary assay, cytotoxicity control for West Nile virus antiviral project, dose response (AID 1650). The format is functional. The settings on record: Chlorocebus sabaeus.
For assay [10], the system named is Vero. The assay is described as follows: inhibition of WNV-induced cytopathic effect – cell-based, CPE readout (AID 1621). The format is functional. The settings on record: Chlorocebus sabaeus. Background: Damage to the host cells serves as the signal in cytopathic effect assays.
Assay [11] has as its target Neurotensin receptor type 1 (Homo sapiens, UniProt P30989). In kind it is functional.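 Further: Image-based confirmatory dose-response assay measuring agonist activity at NTR1; NTR1-expressing U2OS osteosarcoma cells imaged for beta-arrestin GFP spot formation; agonist potency where compounds increase beta-arrestin recruitment.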
Assay [12] addresses T2, Short transient receptor potential channel 4 (Mus musculus, UniProt Q9QUQ5).
T2 sequence (Q9QUQ5 whole entry): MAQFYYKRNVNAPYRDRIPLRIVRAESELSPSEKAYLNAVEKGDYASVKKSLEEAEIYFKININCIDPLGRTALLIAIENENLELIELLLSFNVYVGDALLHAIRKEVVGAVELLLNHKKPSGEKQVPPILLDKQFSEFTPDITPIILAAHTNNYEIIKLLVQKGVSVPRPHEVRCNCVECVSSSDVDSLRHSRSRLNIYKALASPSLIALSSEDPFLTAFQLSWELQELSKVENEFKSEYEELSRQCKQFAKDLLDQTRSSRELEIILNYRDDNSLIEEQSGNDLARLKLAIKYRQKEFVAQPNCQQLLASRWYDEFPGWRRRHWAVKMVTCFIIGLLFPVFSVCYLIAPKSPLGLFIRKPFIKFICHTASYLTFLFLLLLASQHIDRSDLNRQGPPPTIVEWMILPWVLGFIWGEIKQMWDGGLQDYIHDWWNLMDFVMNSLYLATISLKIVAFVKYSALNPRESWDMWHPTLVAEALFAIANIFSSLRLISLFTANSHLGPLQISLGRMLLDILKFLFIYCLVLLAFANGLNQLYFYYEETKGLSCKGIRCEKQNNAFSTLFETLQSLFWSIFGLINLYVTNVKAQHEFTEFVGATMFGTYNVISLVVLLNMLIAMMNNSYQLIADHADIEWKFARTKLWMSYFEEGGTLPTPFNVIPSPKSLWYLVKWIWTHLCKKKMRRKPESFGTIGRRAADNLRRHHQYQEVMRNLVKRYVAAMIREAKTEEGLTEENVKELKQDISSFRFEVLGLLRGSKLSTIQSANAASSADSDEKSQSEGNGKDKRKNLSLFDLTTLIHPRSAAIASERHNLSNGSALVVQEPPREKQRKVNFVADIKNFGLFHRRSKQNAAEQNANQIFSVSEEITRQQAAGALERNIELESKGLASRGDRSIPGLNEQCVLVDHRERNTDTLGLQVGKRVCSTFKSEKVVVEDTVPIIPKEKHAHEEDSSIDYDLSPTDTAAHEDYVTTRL
The assay can be described thus: calcium entry via TRPC4 opening agents – cell-based, HEK293 TRPC4/mu-opioid, Fluo-4 calcium, dose response (AID 434937). In kind it is functional.

For another assay, the system named is INS1. The assay can be described thus: INS-1E survival protection against cytokine death – cell-based, luminescence, retest, dose response (AID 449756).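 Further: cell death triggered by IL-1 beta plus TNF-alpha plus IFN-gamma mixture; protective hits raise ATP signal compared with cytokine alone wells.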 In kind it is functional. The settings on record: Rattus norvegicus.
Assay [13] in a line: reduction of Shn3 3'UTR-driven luciferase in osteoblasts – cell-based, Clone20 osteoblasts, firefly luciferase, cherry-picked, dose response (AID 624132).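 Further: firefly luciferase luminescence from reporter carrying the Shn3 3'UTR in osteoblasts.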 In kind it is functional.
Assay [14] in a line: non-specific 3'UTR reporter inhibition in Clone20-Shn3RL – cell-based, Renilla luciferase, cherry-picked, counter-screen for Shn3 inhibitor project, dose response (AID 624133). In kind it is functional. (In general: The purpose of a counterscreen is to sort out artefacts and off-target activity.)
For a further assay, the target named is Paired box protein Pax-8 (Homo sapiens, UniProt Q06710). The assay is described as follows: PAX8 transcriptional activity inhibition in RMG-I – RMG-I cells, luciferase, cherry-pick, dose response (AID 687027).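 Further: luciferase reporter driven by Pax8 target thyroperoxidase promoter measured by SteadyGlo luminescence.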 In kind it is functional, cell-based.
Assay [15] can be described thus: general cell-killing toxicity readout – plate reader, dry powder samples, cytotoxicity control for PAX8 inhibitor project, dose response (AID 743021). The format is functional, cell-based.

Neurotensin receptor type 1, sequence (P30989 whole entry): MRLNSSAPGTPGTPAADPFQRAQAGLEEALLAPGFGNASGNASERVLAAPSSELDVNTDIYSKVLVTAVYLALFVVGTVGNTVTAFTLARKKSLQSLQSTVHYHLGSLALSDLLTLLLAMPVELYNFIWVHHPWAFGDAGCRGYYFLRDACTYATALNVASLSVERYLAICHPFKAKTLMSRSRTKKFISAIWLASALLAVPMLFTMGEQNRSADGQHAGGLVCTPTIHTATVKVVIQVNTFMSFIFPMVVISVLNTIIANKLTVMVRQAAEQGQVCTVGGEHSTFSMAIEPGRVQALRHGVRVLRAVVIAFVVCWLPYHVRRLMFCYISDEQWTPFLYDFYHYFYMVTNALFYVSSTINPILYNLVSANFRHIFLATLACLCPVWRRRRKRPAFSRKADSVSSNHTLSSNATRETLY
FAD-linked sulfhydryl oxidase ALR, sequence (P55789 whole entry): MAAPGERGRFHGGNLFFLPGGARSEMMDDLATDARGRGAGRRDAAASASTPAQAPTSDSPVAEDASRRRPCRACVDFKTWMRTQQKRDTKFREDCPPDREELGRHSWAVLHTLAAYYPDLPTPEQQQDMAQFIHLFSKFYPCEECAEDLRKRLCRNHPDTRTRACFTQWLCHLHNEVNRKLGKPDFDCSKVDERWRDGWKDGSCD
Paired box protein Pax-8, sequence (Q06710 whole entry): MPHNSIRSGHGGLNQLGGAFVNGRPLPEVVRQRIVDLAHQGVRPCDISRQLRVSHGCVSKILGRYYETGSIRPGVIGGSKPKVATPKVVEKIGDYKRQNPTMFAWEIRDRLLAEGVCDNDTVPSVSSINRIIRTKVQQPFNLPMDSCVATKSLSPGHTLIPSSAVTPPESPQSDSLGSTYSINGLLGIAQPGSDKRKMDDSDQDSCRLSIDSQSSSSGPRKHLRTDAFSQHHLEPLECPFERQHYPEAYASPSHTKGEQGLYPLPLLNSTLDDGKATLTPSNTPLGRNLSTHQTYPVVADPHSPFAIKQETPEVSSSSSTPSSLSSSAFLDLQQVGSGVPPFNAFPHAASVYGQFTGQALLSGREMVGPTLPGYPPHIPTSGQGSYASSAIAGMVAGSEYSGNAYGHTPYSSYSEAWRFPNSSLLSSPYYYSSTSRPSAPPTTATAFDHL
G2/mitotic-specific cyclin-B1, sequence (P14635 whole entry): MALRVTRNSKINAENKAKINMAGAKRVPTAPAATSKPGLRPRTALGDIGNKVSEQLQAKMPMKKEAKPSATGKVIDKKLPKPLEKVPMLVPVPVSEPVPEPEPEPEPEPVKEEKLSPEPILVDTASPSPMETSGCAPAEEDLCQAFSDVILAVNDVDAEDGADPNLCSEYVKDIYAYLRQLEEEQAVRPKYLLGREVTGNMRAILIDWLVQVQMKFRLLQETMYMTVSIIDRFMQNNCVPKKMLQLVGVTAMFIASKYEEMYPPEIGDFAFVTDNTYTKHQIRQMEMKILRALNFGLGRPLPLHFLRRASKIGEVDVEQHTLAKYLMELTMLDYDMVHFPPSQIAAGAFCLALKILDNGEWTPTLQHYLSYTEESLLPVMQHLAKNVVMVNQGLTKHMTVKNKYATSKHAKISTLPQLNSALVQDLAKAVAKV
Wee1-like protein kinase, sequence (P30291 whole entry): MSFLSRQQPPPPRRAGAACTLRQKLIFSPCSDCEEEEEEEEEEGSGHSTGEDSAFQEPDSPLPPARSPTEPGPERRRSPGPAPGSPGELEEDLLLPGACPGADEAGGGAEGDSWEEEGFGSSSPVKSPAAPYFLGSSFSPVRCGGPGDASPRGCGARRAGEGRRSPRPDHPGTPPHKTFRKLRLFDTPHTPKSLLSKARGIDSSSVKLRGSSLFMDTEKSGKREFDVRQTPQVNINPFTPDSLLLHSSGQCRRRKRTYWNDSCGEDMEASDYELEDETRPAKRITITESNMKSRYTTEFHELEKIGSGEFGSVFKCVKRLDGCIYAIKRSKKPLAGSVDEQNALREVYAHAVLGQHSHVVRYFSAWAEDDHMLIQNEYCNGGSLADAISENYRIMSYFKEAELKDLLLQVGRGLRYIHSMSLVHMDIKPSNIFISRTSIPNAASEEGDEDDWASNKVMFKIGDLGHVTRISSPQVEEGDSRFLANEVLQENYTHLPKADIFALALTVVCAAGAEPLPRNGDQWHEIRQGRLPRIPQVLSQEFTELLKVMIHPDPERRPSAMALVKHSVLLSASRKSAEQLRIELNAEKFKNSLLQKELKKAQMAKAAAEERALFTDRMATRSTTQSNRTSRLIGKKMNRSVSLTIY
Cyclin-dependent kinase 5/CDK5 activator 1, sequence (Q00535 whole entry): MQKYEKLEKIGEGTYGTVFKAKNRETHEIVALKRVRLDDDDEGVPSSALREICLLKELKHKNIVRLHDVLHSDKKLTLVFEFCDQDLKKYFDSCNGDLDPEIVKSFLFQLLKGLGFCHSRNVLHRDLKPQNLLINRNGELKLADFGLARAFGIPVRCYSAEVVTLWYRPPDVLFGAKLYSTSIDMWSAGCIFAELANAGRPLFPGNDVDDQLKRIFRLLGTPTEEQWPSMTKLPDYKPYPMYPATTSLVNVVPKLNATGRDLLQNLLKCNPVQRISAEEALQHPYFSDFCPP
Cyclin-dependent kinase 5/CDK5 activator 1, sequence (Q15078 whole entry, further chain): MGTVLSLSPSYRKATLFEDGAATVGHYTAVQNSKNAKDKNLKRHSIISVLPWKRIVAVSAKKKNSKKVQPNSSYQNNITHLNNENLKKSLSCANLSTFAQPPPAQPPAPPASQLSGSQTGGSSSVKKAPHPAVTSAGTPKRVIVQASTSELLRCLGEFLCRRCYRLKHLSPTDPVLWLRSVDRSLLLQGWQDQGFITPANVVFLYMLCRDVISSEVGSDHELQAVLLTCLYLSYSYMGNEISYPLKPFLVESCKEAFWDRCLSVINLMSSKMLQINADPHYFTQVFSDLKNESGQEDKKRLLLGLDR

Consider `Cc1cc(O)nc(-n2nc(C)cc2NC(=O)c2ccc(Br)cc2)n1`, for which the EC50 (on Wee1-like protein kinase; in assay [1]) was > 49.7 µM (inactive) in each case.
As to `Oc1ccc(/C=N/Nc2ccc(C(F)(F)F)cn2)cc1`, the EC50 – broadly, the concentration at which the effect is half-maximal – was 0.998 µM (active) in assay [2]; < 0.1 µM (inconclusive) in [3]; > 120 µM (not active) in the assay on H4; 0.329 µM (active) in assay [4]; 0.35 µM (active) in [5]. Moreover, the AC50 (usually the midpoint of the concentration-response curve, whichever way the signal moves) in [6] is 19.9 µM (active); in [7] it was 37.5 µM (active). Further, the IC50 (in general, the concentration needed to halve the response being measured) in [8] was 28.9 µM (active).
Turning to `CC[C@@H](C(=O)[C@@H](C)[C@@H](O)[C@H](C)CCc1ccc(C)c(O)c1C(=O)O)[C@H]1O[C@](CC)([C@H]2CC[C@](O)(CC)[C@H](C)O2)C[C@@H]1C` [LASALOCID A SODIUM], in the assay on Vero [9], the CC50 (in general, the concentration giving 50% cytotoxicity) was 19.4 µM (active). Further, in the assay on Vero [10], the IC50 is 8.3 µM (active). Further, the EC50 in [11] is 30.5 µM (inactive); in assay [12], 5.96 µM (active). Moreover, the AC50 in the assay on INS1 was 2.64 µM (active); in [13], 7.93 µM (active); in assay [14], 8.23 µM (active); at Paired box protein Pax-8, 3.52 µM (active); in assay [15], 40.7 µM (active).
